What was measured:
Rattus norvegicus [1] = species: Rattus norvegicus; experiment: In vitro inhibition of norepinephrine (NE) uptake in crude rat brain synaptosomes; assay type: functional, organism-based
Rattus norvegicus [2] = species: Rattus norvegicus; experiment: In vitro inhibition of serotonin (5-HT) uptake in crude rat brain synaptosomes; assay type: functional, organism-based
Rattus norvegicus [3] = species: Rattus norvegicus; experiment: In vitro inhibition of norepinephrine (NE) uptake in crude rat brain synaptosomes (% inhibition at maximum concentration)

SMILES | IC50 (Rattus norvegicus [1]) | IC50 (Rattus norvegicus [2]) | IC50 (Rattus norvegicus [3])
NC12CCC(c3ccccc3)(CC1)CC2 | 0.08 µM | 0.095 µM | 
CNCC[C@@H](Oc1ccccc1C)c1ccccc1 [ATOMOXETINE] | 0.004 µM | 1.5 µM | 
CNCCC(Oc1ccc(C(F)(F)F)cc1)c1ccccc1 (stereo not drawn) [FLUOXETINE] |  | 0.07 µM | > 10 µM
COc1ccc(OC[C@H]2CN(C)CC[C@@H]2c2ccccc2)cc1 [FEMOXETINE] | 0.41 µM | 0.0083 µM | 
NC12CCC(c3ccc(Br)cc3)(CC1)CC2 | 54 µM | 0.68 µM | 
CC(N)C(=O)OC(C)(C)Cc1ccc(Cl)cc1 (stereo not drawn) [ALAPROCLATE] | > 34 µM | 0.7 µM | 
CNCCCOc1ccc(C(F)(F)F)cc1 | > 10 µM | 3 µM | 
CNCCC(Oc1ccccc1OC)c1ccccc1 (stereo not drawn) [NISOXETINE] | 0.01 µM | 2 µM | 
CN[C@@H]1CCC(c2ccccc2)c2ccccc21 (stereo partly drawn) | 0.018 µM | 0.84 µM | 

— ChEMBL document CHEMBL1123949, “Molecular structure of fluoxetine hydrochloride, a highly selective serotonin-uptake inhibitor” (J Med Chem, 1988)
